Where only a bound is given, the exact number is not on record here.

The test system of data set [1] is Escherichia coli, Pseudomonas aeruginosa, Staphylococcus aureus and Candida albicans. As to the kind of experiment: Antimicrobial test on SCD agar medium containing the sample. As to conditions: 12 specimens per sample (3.0%, 1.0%, 0.5% x four microorganisms), 30° C., 7 days, visual. It is filed as cell-based. The method, then: The propyl-phenyl-ether derivative of the present invention was evaluated for an antimicrobial test using four bacteria: Escherichia coli, Pseudomonas aeruginosa, Staphylococcus aureus and Candida albicans (use of ATCC strain) according to the following procedure. As a comparative compound, 1,2-pentandiol was used.
(1) Into a test tube containing 1.0 g of Tween 80 (polyoxyethylene sorbitan monooleate) added, 0.3 g, 0.1 g or 0.05 g of various samples were added, and SCD (Soybean Casein Digest) agar medium was added each in an amount of about 10 mL so as to give final concentrations of 3.0%, 1.0% and 0.5%, and stirred thoroughly with Vortex. Thereafter, the sample-containing medium was sterilized by high-pressure steam sterilization (for 15 minutes at 121° C.), cooled down to 45° C., the medium was poured gently onto a petri dish sterilized previously, and spread over the whole petri dish having signage of 4-section on the outer surface of the bottom, and allowed to stand still to solidify the medium. (2) Thereafter, various bacterium solutions of which number of bacteria had been previously regulated to 1.0×10^4 to 5.0×10^4 cfu/mL were inoculated on the sample-containing medium prepared in (1), each one bacterium for one section of the petri dish, each in an amount of 10 μL on four places (three concentrations are applied to four kinds of bacteria for each sample, that is, 12 specimens per sample). (3) These were cultured in a 30° C. thermostat bath for 7 days. (4) The presence or absence of bacteria was determined visually.
The results are classified by the following criteria and shown in Table 4. • The number of specimens confirming bacteria was 10 or more: Δ • The number of specimens confirming bacteria was 6 to 9: ◯ • The number of specimens confirming bacteria was 5 or less: ⊚

For a further data set, the system named is B16 melanoma 4A5 cell. As to the kind of experiment: Melanogenesis inhibiting test (theophylline-induced melanine production). The data set is classed as cell-based. The conditions noted are these: B16 mouse melanoma 4A5, theophylline 1.0 mmol/L, 3 days culture, N=4; for IC40: B16 melanoma 4A5, 72 h, read-out: Judgment: sample concentration showing the melanogenesis inhibiting ratio of 40% or more. How it is done:
As a test for a skin-lightening effect, evaluation of the action of B16 melanoma 4A5 cell on theophylline-induced melanine production was carried out on propyl-phenyl-ether derivatives of the present invention, according to the following procedure. (1) B16 mouse melanoma 4A5 strain was sowed onto a 48-well plate at a cell density of 8.0×10^3 cells/well. (2) Culturing was performed for 24 hours with Dulbecco's Modified Eagle's medium (manufactured by SIGMA. Hereinafter, abbreviated as D-MEM) containing 10% fetal bovine serum (manufactured by Nichirei Biosciences Inc.). […] (3) After culturing for 3 days in the co-existence of a sample, the medium was removed using an aspirator. Then, after distilled water was added, cells were broken by an ultrasonic wave. (4) Thereafter, the amount of protein was determined using BCA protein assay kit (manufactured by Thermo Fisher Scientific Inc.), and the produced amount of melanine was measured by an alkali solubilizing method described below. [Alkali Solubilizing Method] To the cell-destructed solution was added sodium hydroxide so as to give a final concentration of 1 mol/L and the mixture was dissolved by heating (60° C., 30 minutes), then, the absorbance at 450 nm was measured using a micro plate reader. The melanine amount was calculated from a calibration curve made using synthetic melanine (SIGMA) as a standard. The melanine amount per unit protein was calculated by dividing the melanine amount by the protein amount. (5) The melanine production suppressing rate was calculated according to the following formula. Melanine production suppressing rate (%)=[1−(A−B)/(C−B)]×100 [wherein, A represents the melanine amount per unit protein (g/g) in adding a sample, B represents the melanine amount per unit protein (g/g) in the normal group, and C represents the melanine amount per unit protein (g/g) in the control group.] In the above, Normal group is a case of theophylline (−; no addition) and sample (−; no addition), and Control group is a case of theophylline (+; addition) and sample (−; no addition). (6) Determination of Skin-Lightening Effect The amount of a sample required for adjusting the melanogenesis inhibiting ratio to 40% or more was measured, and the effect was evaluated by the following criteria based on the measured amount. The measurement was conducted at N=4 (4 wells per sample). The skin-lightening effect is expressed as described below based on the sample concentration showing the melanogenesis inhibiting ratio of 40% or more. The measurement was conducted at N=4.

For data set [2], the system named is Propionibacterium acnes (JCM6415). As to the kind of experiment: Anti-acne test (growth in GAM bouillon medium, OD620). It is filed as cell-based. As to conditions: sample final concentration 0.1%, 37° C., anaerobic, 48 hours. The method, then:
Propionibacterium acnes (JCM6415: ATCC strain) was transplanted to GAM bouillon medium (manufactured by Nissui Pharmaceutical Co., Ltd.), and cultured at 37° C. under anaerobic condition for 24 hours. Thereafter, it was diluted with GAM bouillon medium so that the final bacterium concentration was OD620=0.1, and this was used as a test bacterium solution. In examples, the propyl-phenyl-ether derivative was weighed so that the final concentration was 0.1%, dissolved in GAM bouillon medium, then, filter-sterilization was performed. The resultant solution was used as a sample solution. The test bacterium solution was added in an amount of 30 μL and the sample solution was added in an amount of 120 μL to a 96-well microplate (manufactured by Sumitomo Bakelite Co., Ltd.), then, immediately, the micro plate and AnaeroPack-KENKI (manufactured by Mitsubishi Gas Chemical Co., Inc.) were placed into an anaerobic jar (manufactured by Mitsubishi Gas Chemical Co., Inc.), and culture was carried out at 37° C. under anaerobic condition for 48 hours. Thereafter, OD620 was measured by a microplate reader. The same test was conducted using methylparaben, phenoxyethanol and sodium ascorbate as comparative compounds.
The results are classified by the following criteria and shown in Table 5-Table 7. • Δ: OD620 is 0.6 or more • ◯: OD620 is 0.3-0.6 • ⊚: OD620 is 0.3 or less

Data set [3] in a line: Stability test (coloration on storage). It is filed as physicochemical. As to conditions: for Coloration, 2 weeks after / Coloration, 4 weeks after: 1% in 50% ethanol, pH 6.0 to 8.0, stored at 50° C., total points of 10 panelists. The method, then: Aascorbic acid, kojic acid, hydroquinone and arbutin which are known skin-lightening agents were used as comparative compounds. […] The solutions were placed in 50 mL screw tubes and closely sealed, and stored at 50° C. for 4 weeks. The degrees of coloration of the solution directly after preparation of the test sample, 2 weeks after storage and 4 weeks after storage were evaluated by 10 panelists according to the following criteria. 3: almost no change as compared with directly after preparation 2: colored as compared with directly after preparation 1: intensely colored as compared with directly after preparation The evaluation results of coloration were classified as described below.

As for `CCOCC(O)COc1ccc(C(C)(C)C)cc1` (stereo not drawn) [Example 3 (1-O-ethyl-2-hydroxy-3-(4′-tert-butylphenoxy)propy] [1-O-ethyl-2-hydroxy-3-(4′-tert-butylphenoxy)propyl], the “Judgment: number of specimens confirming bacteria” value (shortened to “Judgment: number”) in data set [1] is “⊚ (The number of specimens confirming bacteria was 5 or less: ⊚)”. Besides, the “Judgment: sample concentration showing the melanogenesis inhibiting ratio of 40% or more” value with B16 melanoma 4A5 cell is given as “⊚⊚ (≦30 μmol/L: ⊚⊚)”. Moreover, the “Judgment: OD620 after culture” value in data set [2] is given as “◯ (◯: OD620 is 0.3-0.6)”.

As to `O=c1cc(CO)occ1O` [Kojic acid], in the data set on B16 melanoma 4A5 cell, the IC40 was ≥ 300 µM. Also, the “Coloration, 2 weeks after” value in data set [3] is on record as “◯ (◯: total points of 10 panelists is 22 or more)”. The “Coloration, 4 weeks after” value in data set [3] (4 weeks) is reported as “Δ (Δ: total points of 10 panelists is 15 to 21)”.

Consider `OC[C@H]1O[C@@H](Oc2ccc(O)cc2)[C@H](O)[C@@H](O)[C@@H]1O` [Arbutin], for which the IC40 with B16 melanoma 4A5 cell fell in the range of 30 to 100 µM. For the same compound, the “Coloration, 2 weeks after” value in data set [3] is “◯ (◯: total points of 10 panelists is 22 or more)”. The “Coloration, 4 weeks after” value in data set [3] (4 weeks) is given as “Δ (Δ: total points of 10 panelists is 15 to 21)”.

`Oc1ccc(O)cc1` [Hydroquinone]: the IC40 with B16 melanoma 4A5 cell is ≥ 300 µM. Also, the “Coloration, 2 weeks after” value in data set [3] was “X (X: total points of 10 panelists is 14 or less)”. The “Coloration, 4 weeks after” value in data set [3] (4 weeks) is “X (X: total points of 10 panelists is 14 or less)”.

Turning to `CCCC(O)CO` (stereo not drawn) [1,2-pentandiol, reference compound], the “Judgment: number” value in data set [1] is listed as “Δ (The number of specimens confirming bacteria was 10 or more: Δ)”.

In the case of `O=C1O[C@H]([C@@H](O)CO)C(O)=C1O` [Ascorbic acid], the IC40 with B16 melanoma 4A5 cell was ≥ 300 µM. Besides, the “Coloration, 2 weeks after” value in data set [3] is “X (X: total points of 10 panelists is 14 or less)”. Moreover, the “Coloration, 4 weeks after” value in data set [3] (4 weeks) is listed as “X (X: total points of 10 panelists is 14 or less)”.

On to `CCC(C)c1ccc(OCC(O)CO)cc1` (stereo not drawn) [Example 5, 1,2-di-hydroxy-3-(4′-sec-butylphenoxy)propyl], for which the “Judgment: number” value in data set [1] is “⊚ (The number of specimens confirming bacteria was 5 or less: ⊚)”. The “Judgment: sample concentration showing the melanogenesis inhibiting ratio of 40% or more” value in the data set on B16 melanoma 4A5 cell is given as “⊚ (30 to 100 μmol/L: ⊚)”. Moreover, the “Judgment: OD620 after culture” value in data set [2] was “◯ (◯: OD620 is 0.3-0.6)”.

Regarding `CC(C)(C)c1ccc(OCC(O)CO)cc1` (stereo not drawn) [Example 1, 1,2-di-hydroxy-3-(4′-tert-butylphenoxy)propyl], the “Judgment: number” value in data set [1] was “⊚ (The number of specimens confirming bacteria was 5 or less: ⊚)”. Also, in the data set with B16 melanoma 4A5 cell, the “Judgment: sample concentration showing the melanogenesis inhibiting ratio of 40% or more” value is “⊚⊚ (≦30 μmol/L: ⊚⊚)”. Also, the “Judgment: OD620 after culture” value in data set [2] is “⊚⊚”. Besides, in data set [3], the “Coloration, 2 weeks after” value is “◯ (◯: total points of 10 panelists is 22 or more)”. In data set [3] (4 weeks), the “Coloration, 4 weeks after” value is listed as “◯ (◯: total points of 10 panelists is 22 or more)”. Moreover, in data set [3] (summary of Table 8, 50° C., 4 weeks), the “Stability in terms of coloration (in words)” value is “excellent in stability in terms of coloration”.

`CCC(C)c1ccccc1OCC(O)CO` (stereo not drawn) [Example 6, 1,2-di-hydroxy-3-(2′-sec-butylphenoxy)propyl]: the “Judgment: number” value in data set [1] was “◯ (The number of specimens confirming bacteria was 6 to 9: ◯)”. In addition, in the data set on B16 melanoma 4A5 cell, the IC40 was in the range of 100 to 300 µM. Further, the “Judgment: OD620 after culture” value in data set [2] is recorded as “◯ (◯: OD620 is 0.3-0.6)”.

As to `CCCCCCCC(=O)OCC(COc1ccc(C(C)(C)C)cc1)OC(=O)CCCCCCC` (stereo not drawn) [Example 7, 1,2-di-octanoyl-3-(4′-tert-butylphenoxy) propyl], the “Judgment: number” value in data set [1] is given as “◯ (The number of specimens confirming bacteria was 6 to 9: ◯)”. The “Judgment: sample concentration showing the melanogenesis inhibiting ratio of 40% or more” value with B16 melanoma 4A5 cell is “⊚⊚ (≦30 μmol/L: ⊚⊚)”. The “Judgment: OD620 after culture” value in data set [2] is “◯ (◯: OD620 is 0.3-0.6)”.

For the compound `CC(C)(c1ccccc1)c1ccc(OCC(O)CO)cc1` (stereo not drawn) [Example 16, 1,2-di-hydroxy-3-(4′-α-cumylphenoxy)propyl], the IC40 in the data set with B16 melanoma 4A5 cell fell in the range of 30 to 100 µM. Also, the “Judgment: OD620 after culture” value in data set [2] is reported as “⊚ (⊚: OD620 is 0.3 or less)”.

Regarding `CCOCC(O)COc1ccc(C(C)(C)c2ccccc2)cc1` (stereo not drawn) [Example 28, 1-O-ethyl-2-hydroxy-3-(4′-α-cumylphenoxy)propyl], the IC40 in the data set on B16 melanoma 4A5 cell was ≤ 30 µM. In data set [2], the “Judgment: OD620 after culture” value is “⊚⊚”.

`CCOc1ccc(C(C)(C)C)cc1` [Synthesis Example 2, 1-(4′-tert-butylphenoxy)ethyl, reference compound]: the IC40 in the data set with B16 melanoma 4A5 cell is ≥ 300 µM. Also, the “Judgment: OD620 after culture” value in data set [2] is given as “Δ (Δ: OD620 is 0.6 or more)”.

`Cc1ccccc1OCC(O)CO` (stereo not drawn) [Synthesis Example 4, 1,2-di-hydroxy-3-(2′-methylphenoxy)propyl, reference compound]: the IC40 with B16 melanoma 4A5 cell was ≥ 300 µM. Also, the “Judgment: OD620 after culture” value in data set [2] is on record as “Δ (Δ: OD620 is 0.6 or more)”.

(Values after patent US20150238401A1, “PROPYL-PHENYL-ETHER DERIVATIVE, AND MELANOGENESIS INHIBITOR, SKIN-LIGHTENING AGENT, ANTIMICROBIAL AGENT AND COSMETIC CONTAINING SAID PROPYL-PHENYL-ETHER DERIVATIVE” (SEIWA KASEI COMPANY, LIMITED, priority 2012, published 2015).)
